# US8603493B2, “Carbosilane dendrimers, preparation method thereof and use of same” (Dendrico, S.L., priority 2005, dated 2013)
# Legend:
# [1] = test system: ODN PPT; test: Stability of the dendriplexes at different pHs; assay type: physicochemical; conditions: dendriplexes with PPT, 2/1 charge ratio; pHs 2.8; 2.7; 4.7; 5.7; 6.4; 7.4; 8
# Method: Stability studies were carried out on the complexes a different pHs, to determine how the changes in pH would affect the complex, since there are different anatomic, tissue or cell localizations in which the pH acidifies or alkalinifies. Examples are stomach ambient acid, the alkali of the pancreatic secretions of the small intestine, or at a cellular level, the endosome-lisosome behaviour, where it changes from a physiological pH (7.35-7.45) to an acid pH around 4. It is interesting to know, therefore, in what pH range the DNA complex could be maintained with the different CBS used. The complexes were formed following the habitual process and volumes were added in excess of different solutions at different pHs. Therefore, for each one of dendrimers Phe, ClNH4, NN, IM8 and IM16, according to Example 31, 7 solutions were prepared of dendriplexes formed with PPT, in a 2/1 charge ratio and with the following pHs: […]; 2.7; 4.7; 5.7; 6.4; 7.4; 8: The results produced are shown in the electrophoresis gels which appear in FIG. 4, wherein the height of the normal ODN migration band is shown with arrows in the lower part of the gels. The samples were loaded from left to right following an increasing pH order. No sample was formed in the wells indicated with an X.
# [2] = test system: ODN; test: Complex formation between CBS and ODN (agarose gel electrophoresis); assay type: binding; conditions: 3% agarose gel, RPMI, excess positive charge (+/−) 2/1 and higher
# Excerpt: The oligonucleotidic sequences used were antisense sequences (complementary) directed against HIV RNA. The length varied from 15 to 28 bases, being of phosphorothioate nature. The specific ODN used and their sequences are shown below in Table 1.
# Several of the ODN were used fluorescent at the 5′ end. This is indicated by adding the letter F to its notation. Thus, “GF” makes reference to the fluorescent anti-gag ODN at end 5′, whilst “RF” makes reference to the anti-Rev ODN fluorescent at end 5′.
# Different agarose concentrations were used to show the migration of the ODN and the dendriplexes, bearing in mind the small size of the ODN used. Finally, a 3% agarose concentration in TAE 1× was chosen as the best. The migration of non-fluorescent ODNs was compared with fluorescent ones, both migrating at the same height but the latter increasing the signal perceived considerably. Using them, it thus avoided the isotopic labelling of the ODN. A double well was manufactured to prepare these gels, to permit load volumes of 60 μl, of which 50 μl was mixture volume of the samples in RPMI and 10 μl load buffer with glycerol. As size marker, a ladder of 100 base pairs was used (Gibco BRL®).
# For the complex formations in all the tests performed, both on gels and on cells the ratio between the number of positive and negative charges in said complex was taken. As published by different authors in studies with PAMAM dendrimers, it is necessary that the complex formed has an excess positive charge to facilitate its binding to the cell membrane glycoproteins, negatively charged, thus starting the endocytosis process. Likewise, an excess of positive charge is added to ensure the formation of the dendrimer-DNA complex. Therefore, the complexes between the CBS dendrimers and the different nucleic acids were formed in excess number of positive charges (provided by the CBS) compared with negative charges (provided by the ODN). Nevertheless, different charge ratios were tested, making the calculations based in the number of dendrimer charges (fixed) and the number of negative charges of the ODN (also fixed). The 2/1 ratio of positive/negative charges was fixed as sufficient in all dendrimers to form the complexes with a total positive charge, although in some experiments a balance was provided of an equal number of negative charges as positive charges or excess negative charges.
# In all the tests, a complex formation volume of 60 μl was used, using phenol red without RPMI serum as support medium.
# Tests of complex formation were used with the dendrimers of the invention IM8, ClNH4, NN, Phe and IM16.
# The synthesis process of the CBS used in this work begins from an initial nucleus of common structure, which is ended functionalizing in the periphery by the use of different functional groups, which are those which provide the positive charge to the dendrimer and determine the differences between themselves, the dendrimeric nucleus being of apolar nature. Since some of the bonds of the functional groups used to the dendrimeric nucleus could be unstable in aqueous solution, tests were performed to determine if the DNA retention in agarose gels and, therefore, the complex formation between the CBS and the DNA could be due to the total dendrimer structure being conserved or in contrast, the terminal functional groups came away from the moiety of the dendrimeric core which are responsible for the DNA retention. For this, gels were used in which complexes were formed between the ODNs and the integral CBS and those formed supposedly between the ODNs and the terminal functional groups with which the carbosilane skeleton had functionalized, in this case quaternized dimethylethanolamine. As has previously been commented, those positively charged molecules, which are bound to the dendrimer as terminal functional groups, are those which give the dendrimer its charge. As control, the mixtures of ODN-dendrimers, ODN-monomers and ODN alone were compared. […]
# [3] = test system: peripheral blood mononuclear cells (PBMC); test: Visual examination of PBMC incubated with dendrimers; assay type: cell-based, human; conditions: for visual examination of PBMC: 48 hours
# Method: The toxicity of dendrimers IM8, IM16, ClNH4, NN, Phe and the commercial controls SF (Superfect) and G4 were tested. Different quantities were taken of each one of them so that the final concentrations with which the cells were incubated were 1 μM, 5 μM, 10 μM, 20 μM and 100 μM.
# The blood came from adult donors or the umbilical cord of health newborns. Said blood was diluted ½ with PBS and it was centrifuged in a Ficoll gradient. After said centrifugation, the PBMC halo was recovered and two subsequent washing-centrifuging cycles were carried out. The resulting PBMC were resuspended in complete culture medium with 10% FCS, antibiotics and glutamine.
# 100 μl of 10% complete medium of foetal calf serum, antibiotics and glutamine were added to a volume of 60 μl of RPMI with the corresponding dendrimer tested. 160 μl were then added to the cells seeded in 340 μl, completing a final volume of 500 μl. The cells were incubated in this way for 48 hours and then the effect of the incubation with the dendrimers was evaluated by its visual examination and by the evaluation of the mitochondrial activity.
# [4] = test system: erythrocytes; test: Visual examination of erythrocytes (hemagglutination); assay type: cell-based, human
# Method: A visual examination was carried out to detect the presence/absence of hemagglutination and quantification of haemoglobin release (haemolysis test) by spectrophotometry. ClNH4 was excluded from the dendrimers of previous Example 38, as the result had been more toxic for lymphocytes, and the results were compared with those produced for a PAMAN type generation 4 dendrimer.
# The erythrocytes were obtained after being separated from the PBMC using the same Ficoll gradient cited in the previous Example. They were diluted in PBS to be able to view them individually. The cells were resuspended in 500 μl of PBS and were seeded in a 24-well plate (300,000/well). As positive control, cells treated with 0.2% Triton X-100 were used. Negative control: PBS (blank). The erythrocytes were incubated with different dendrimer concentrations. The presence of hemagglutination, number of cells and release of haemoglobin by hour were evaluated by collecting 100 μl of supernatant and measuring absorbencies by spectrophotometry using a plate reader at a wavelength of 550 nm and 690 nm as reference.
smiles,measurement,setting,value
"C[N+](C)(C)CCOc1cc(CO[Si](C)(C)CCC[Si](C)(CCC[Si](CCC[Si](C)(CCC[Si](C)(C)OCc2cc(OCC[N+](C)(C)C)cc(OCC[N+](C)(C)C)c2)CCC[Si](C)(C)OCc2cc(OCC[N+](C)(C)C)cc(OCC[N+](C)(C)C)c2)(CCC[Si](C)(CCC[Si](C)(C)OCc2cc(OCC[N+](C)(C)C)cc(OCC[N+](C)(C)C)c2)CCC[Si](C)(C)OCc2cc(OCC[N+](C)(C)C)cc(OCC[N+](C)(C)C)c2)CCC[Si](C)(CCC[Si](C)(C)OCc2cc(OCC[N+](C)(C)C)cc(OCC[N+](C)(C)C)c2)CCC[Si](C)(C)OCc2cc(OCC[N+](C)(C)C)cc(OCC[N+](C)(C)C)c2)CCC[Si](C)(C)OCc2cc(OCC[N+](C)(C)C)cc(OCC[N+](C)(C)C)c2)cc(OCC[N+](C)(C)C)c1.[I-].[I-].[I-].[I-].[I-].[I-].[I-].[I-].[I-].[I-].[I-].[I-].[I-].[I-].[I-].[I-] [Phe, 2G-[Si(OCH2—(C6H3)-3,5-(OCH2CH2NMe3^+I^−)2)]8]",stability of dendrimer-ODN complex at the pHs tested,[1],stable at all pHs tested
same,complex formation with ODN (retention of DNA migration in gel),[2],capable of forming complexes with the ODN
same,toxicity for the lymphocytes from the visual observation (comparison),[3],least toxic
same,visual examination of PBMC,[3]; 1 μM,O.K
same,visual examination of PBMC,[3]; 5 μM,O.K
same,visual examination of PBMC,[3]; 10 μM,O.K
same,visual examination of PBMC,[3]; 20 μM,Few cells
same,visual examination of PBMC,[3]; 100 μM,Isolated cells.
same,induction of hemagglutination / haemolysis,[4],induces hemagglutination
same,order of hemagglutination from greater to lesser,[4],G4>Phe>IM16>IM8>NN
same,Visual examination of erythrocytes incubated with dendrimers,[4]; 1 μM,Ag+
same,Visual examination of erythrocytes incubated with dendrimers,[4]; 5 μM,Ag+++
same,Visual examination of erythrocytes incubated with dendrimers,[4]; 10 μM,Ag+++
